PubChem BioAssay (NCI)
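96-well plates; 48 h exposure; 5 concentrations. Endpoints by linear interpolation between flanking doses. Not reached: highest tested concentration assigned. GI50 = concentration required for 50% inhibition of growth. The concentration for full growth arrest is given as TGI.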

Assays:
Assay in all cases: inhibition of tumour cell growth, NCI panel, 48 h
NCI/ADR-RES ovarian = system: NCI/ADR-RES ovarian
NCI-H226 lung = system: NCI-H226 lung
HOP-92 NSCLC = system: HOP-92 NSCLC
SK-OV-3 ovarian = system: SK-OV-3 ovarian
NCI-H460 lung = system: NCI-H460 lung
786-0 renal = system: 786-0 renal
RPMI-8226 leukemia = system: RPMI-8226 leukemia
OVCAR-3 ovarian = system: OVCAR-3 ovarian
SK-MEL-5 melanoma = system: SK-MEL-5 melanoma
NCI-H522 lung = system: NCI-H522 lung
A549 NSCLC = system: A549 NSCLC
PC-3 prostate = system: PC-3 prostate
M14 melanoma = system: M14 melanoma
SR leukemia = system: SR leukemia
HT29 colon = system: HT29 colon
MOLT-4 leukemia = system: MOLT-4 leukemia
SK-MEL-28 melanoma = system: SK-MEL-28 melanoma
SK-MEL-2 melanoma = system: SK-MEL-2 melanoma
EKVX NSCLC = system: EKVX NSCLC
BT-549 breast = system: BT-549 breast
TK-10 renal = system: TK-10 renal
CCRF-CEM leukemia = system: CCRF-CEM leukemia
MDA-MB-231 breast = system: MDA-MB-231 breast
SNB-75 CNS = system: SNB-75 CNS
HL-60(TB) leukemia = system: HL-60(TB) leukemia
SNB-19 CNS = system: SNB-19 CNS
MDA-MB-435 = system: MDA-MB-435
OVCAR-8 ovarian = system: OVCAR-8 ovarian
HCT-116 colon = system: HCT-116 colon
HOP-62 NSCLC = system: HOP-62 NSCLC
UACC-62 melanoma = system: UACC-62 melanoma
UO-31 renal = system: UO-31 renal
NCI-H23 lung = system: NCI-H23 lung
K-562 leukemia = system: K-562 leukemia
COLO 205 colon = system: COLO 205 colon
LOX IMVI melanoma = system: LOX IMVI melanoma
T-47D breast = system: T-47D breast
OVCAR-4 ovarian = system: OVCAR-4 ovarian
IGROV1 ovarian = system: IGROV1 ovarian
OVCAR-5 ovarian = system: OVCAR-5 ovarian
U251 CNS = system: U251 CNS
SF-268 CNS = system: SF-268 CNS
DU-145 prostate = system: DU-145 prostate
A498 renal = system: A498 renal
KM12 colon = system: KM12 colon
MCF7 breast = system: MCF7 breast
HS 578T breast = system: HS 578T breast
SF-295 CNS = system: SF-295 CNS
SW-620 colon = system: SW-620 colon
SN12C renal = system: SN12C renal
SF-539 CNS = system: SF-539 CNS
HCT-15 colon = system: HCT-15 colon
UACC-257 melanoma = system: UACC-257 melanoma
ACHN renal = system: ACHN renal
MALME-3M melanoma = system: MALME-3M melanoma
CAKI-1 renal = system: CAKI-1 renal

For c1cc(N2CCN(c3ccc(C4=NCCN4)cc3)CC2)ccc1C1=NCCN1, the GI50 (NCI/ADR-RES ovarian) was over 100 µM, the TGI (NCI/ADR-RES ovarian) was over 100 µM and the GI50 (NCI-H226 lung) was over 80.6 µM. It also gave a TGI (NCI-H226 lung) of over 100 µM, a GI50 (HOP-92 NSCLC) of over 100 µM and a TGI (HOP-92 NSCLC) of over 100 µM. It also gave a GI50 (SK-OV-3 ovarian) of over 100 µM, a TGI (SK-OV-3 ovarian) of over 100 µM and a GI50 (NCI-H460 lung) of 24.9 µM. It also gave a TGI (NCI-H460 lung) of over 100 µM, a GI50 (786-0 renal) of over 68.9 µM and a TGI (786-0 renal) of over 100 µM. For the same molecule, the GI50 (RPMI-8226 leukemia) was 12.8 µM, the TGI (RPMI-8226 leukemia) was over 53.5 µM and the GI50 (OVCAR-3 ovarian) was over 46.9 µM. It also gave a TGI (OVCAR-3 ovarian) of over 86 µM, a GI50 (SK-MEL-5 melanoma) of 22.4 µM and a TGI (SK-MEL-5 melanoma) of over 68.8 µM. For the same molecule, the GI50 (NCI-H522 lung) was 21.2 µM, the TGI (NCI-H522 lung) was over 77.3 µM and the GI50 (A549 NSCLC) was 66.7 µM. The TGI (A549 NSCLC) was over 100 µM, the GI50 (PC-3 prostate) was over 73.6 µM and the TGI (PC-3 prostate) was over 100 µM. It also gave a GI50 (M14 melanoma) of over 61 µM, a TGI (M14 melanoma) of over 100 µM and a GI50 (SR leukemia) of 30.8 µM. For the same molecule, the TGI (SR leukemia) was over 100 µM, the GI50 (HT29 colon) was over 100 µM and the TGI (HT29 colon) was over 100 µM. The GI50 (MOLT-4 leukemia) was over 100 µM, the TGI (MOLT-4 leukemia) was over 100 µM and the GI50 (SK-MEL-28 melanoma) was over 67.5 µM. It also gave a TGI (SK-MEL-28 melanoma) of over 100 µM, a GI50 (SK-MEL-2 melanoma) of 52.4 µM and a TGI (SK-MEL-2 melanoma) of over 100 µM. For the same molecule, the GI50 (EKVX NSCLC) was 11.5 µM, the TGI (EKVX NSCLC) was 65.2 µM and the GI50 (BT-549 breast) was 24.9 µM. For the same molecule, the TGI (BT-549 breast) was over 84.5 µM, the GI50 (TK-10 renal) was 43 µM and the TGI (TK-10 renal) was 98.9 µM. The GI50 (CCRF-CEM leukemia) was over 87.4 µM, the TGI (CCRF-CEM leukemia) was over 100 µM and the GI50 (MDA-MB-231 breast) was over 100 µM. For the same molecule, the TGI (MDA-MB-231 breast) was over 100 µM, the GI50 (SNB-75 CNS) was over 100 µM and the TGI (SNB-75 CNS) was over 100 µM. The GI50 (HL-60(TB) leukemia) was over 100 µM, the TGI (HL-60(TB) leukemia) was over 100 µM and the GI50 (SNB-19 CNS) was over 100 µM. The TGI (SNB-19 CNS) was over 100 µM, the GI50 (MDA-MB-435) was 58 µM and the TGI (MDA-MB-435) was over 100 µM. For the same molecule, the GI50 (OVCAR-8 ovarian) was 37.2 µM, the TGI (OVCAR-8 ovarian) was over 100 µM and the GI50 (HCT-116 colon) was over 100 µM. The TGI (HCT-116 colon) was over 100 µM, the GI50 (HOP-62 NSCLC) was 16 µM and the TGI (HOP-62 NSCLC) was 58.7 µM. For the same molecule, the GI50 (UACC-62 melanoma) was 41.9 µM, the TGI (UACC-62 melanoma) was over 100 µM and the GI50 (UO-31 renal) was over 72 µM. For the same molecule, the TGI (UO-31 renal) was over 100 µM, the GI50 (NCI-H23 lung) was over 44.4 µM and the TGI (NCI-H23 lung) was over 100 µM. It also gave a GI50 (K-562 leukemia) of 39.4 µM, a TGI (K-562 leukemia) of over 100 µM and a GI50 (COLO 205 colon) of over 100 µM. The TGI (COLO 205 colon) was over 100 µM, the GI50 (LOX IMVI melanoma) was over 100 µM and the TGI (LOX IMVI melanoma) was over 100 µM. For the same molecule, the GI50 (T-47D breast) was over 100 µM, the TGI (T-47D breast) was over 100 µM and the GI50 (OVCAR-4 ovarian) was over 100 µM. The TGI (OVCAR-4 ovarian) was over 100 µM, the GI50 (IGROV1 ovarian) was 55.9 µM and the TGI (IGROV1 ovarian) was over 100 µM. It also gave a GI50 (OVCAR-5 ovarian) of over 100 µM, a TGI (OVCAR-5 ovarian) of over 100 µM and a GI50 (U251 CNS) of 32.7 µM. The TGI (U251 CNS) was over 100 µM, the GI50 (SF-268 CNS) was over 75.3 µM and the TGI (SF-268 CNS) was over 100 µM. The GI50 (DU-145 prostate) was 45.7 µM, the TGI (DU-145 prostate) was over 100 µM and the GI50 (A498 renal) was 7.5 µM. For the same molecule, the TGI (A498 renal) was over 100 µM, the GI50 (KM12 colon) was over 49 µM and the TGI (KM12 colon) was over 96.1 µM. The GI50 (MCF7 breast) was 24.6 µM, the TGI (MCF7 breast) was over 100 µM and the GI50 (HS 578T breast) was 25.1 µM. It also gave a TGI (HS 578T breast) of over 78.2 µM, a GI50 (SF-295 CNS) of 24.8 µM and a TGI (SF-295 CNS) of over 80.4 µM. It also gave a GI50 (SW-620 colon) of over 100 µM, a TGI (SW-620 colon) of over 100 µM and a GI50 (SN12C renal) of 1850 nM. For the same molecule, the TGI (SN12C renal) was over 26.4 µM, the GI50 (SF-539 CNS) was 55.4 µM and the TGI (SF-539 CNS) was over 100 µM. For the same molecule, the GI50 (HCT-15 colon) was 66.3 µM, the TGI (HCT-15 colon) was over 100 µM and the GI50 (UACC-257 melanoma) was 58.7 µM. The TGI (UACC-257 melanoma) was 97.5 µM, the GI50 (ACHN renal) was over 100 µM and the TGI (ACHN renal) was over 100 µM. The GI50 (MALME-3M melanoma) was 48.8 µM, the TGI (MALME-3M melanoma) was over 100 µM and the GI50 (CAKI-1 renal) was over 57.5 µM. For the same molecule, the TGI (CAKI-1 renal) was over 100 µM.
